According to patent US20220152019A1, “COMPOUNDS, COMPOSITIONS, AND METHODS FOR TREATING INFLAMMATORY OR IMMUNE-MEDIATED CONDITIONS OF SURFACE TISSUES” (Landos Biopharma, Inc., priority 2020, published 2022):

Experiments:
[1] = test system: Imiquimod (IMQ)-induced psoriasis in C57BL/6 mice; assay: Imiquimod (IMQ)-induced model of psoriasis, topical treatment, PASI scoring; type: in vivo; details: BT-11 dihydrochloride salt 200 μg in DMSO, vs DMSO control, day 7
Description: (§1) Imiquimod (IMQ)-induced model. C57BL/6 mice were anesthetized, shaved, and briefly exposed to depilatory cream on the surface of the back. Mice were given three days to recover from the procedure prior to entry to the study. After 3 days, mice were challenged with approximately 60 mg of […] imiquimod cream daily by spreading cream over the shaved area. Treatment with BT-11 dihydrochloride salt (200 μg) in dimethyl sulfoxide (DMSO) or a DMSO control lacking BT-11 occurred by topical application to the shaved area. Mice were scored for erythema, scaling and skin thickness, summarized into a composite psoriasis area and severity index (PASI) score on a scale from 0 to 12, on day 7.

[2] = test system: splenic CD3+CD4+ T cells and CD45+ cells; assay: Flow cytometry of spleen cells from the IMQ-induced psoriasis model; type: in vivo, mice; details: topical BT-11 vs DMSO control
Description: as §1
Analysis. Spleens were excised and crushed by microscope slides. Red blood cells were hypotonically lysed from the resultant suspension. Samples were filtered, washed and centrifuged prior to staining. Production of TNF, IL-17, and IL-21 were quantified from CD3+CD4+ T cells and IL6 from CD45+ by flow cytometry.

[3] = test system: MC903-induced atopic dermatitis in mice; assay: MC903-induced model of atopic dermatitis, topical cream, disease activity index scoring; type: in vivo; details: BT-11 topical cream 2% (Formula F3) daily to the ear, vs placebo cream
Description: (§2) MC903-induced model. MC903 (2 nM in 20 uL ethanol) was applied to the dorsal ear skin three times per week for nine applications. BT-11 topical cream (2%) (Formula F3 is Table 2) was applied to the ear daily. Mice were scored for erythema, scaling and skin thickness, summarized into a composite disease activity index score through day 19.

[4] = test system: cervical lymph node CD3+CD4+ T cells; assay: Flow cytometry of cervical lymph node cells from the MC903-induced atopic dermatitis model; type: in vivo, mice; details: cervical lymph nodes, BT-11 cream 2% vs placebo cream
Description: as §2, with “19. Analysis. Cervical lymph nodes were excised and crushed by microscope slides. Red blood cells were hypotonically lysed from the resultant suspension. Samples were filtered, washed and centrifuged prior to staining. Production of IFNγ, IL-5, and IL-4 were quantified from CD3+CD4+ T cells by flow cytometry.” for “19.”

Q: For `O=C(c1cccc(-c2nc3ccccc3[nH]2)n1)N1CCN(C(=O)c2cccc(-c3nc4ccccc4[nH]3)n2)CC1` [BT-11, piperazine-1,4-diylbis((6-(1H-benzo[d]imidazo-2-yl)pyridine-2-yl)methanone)], which “PASI subscores (erythema, scaling, skin thickness)” value [1] is on record?
A: reductions in each subscore

Q: What about the “splenic proportion of TNF-positive CD4+ T cells” value ([2]; FIG. 1B) of the same molecule?
A: reduced

Q: And the “splenic proportion of IL-17-positive CD4+ T cells” value ([2]; FIG. 1C)?
A: reduced

Q: And the “splenic proportion of IL-21-positive CD4+ T cells” value ([2]; FIG. 1D)?
A: reduced

Q: What about the “splenic proportion of IL-6+ cells within all CD45+ immune cells” value ([2]; FIG. 1E) of the same molecule?
A: reduction

Q: And the “disease activity subscores (erythema, scaling, skin thickness)” value [3]?
A: reductions in each subscore

Q: What about the “reduction of severity of disease (composite disease activity index score)” value ([3]; through day 19, FIG. 2A) of the same molecule?
A: approximately 70%

Q: What about the “cervical lymph node proportion of IFNγ-positive CD4+ T cells” value ([4]; FIG. 2B) of the same molecule?
A: reduced

Q: What about the “cervical lymph node proportion of IL-4-positive CD4+ T cells” value ([4]; FIG. 2C) of the same molecule?
A: reduced

Q: What about the “cervical lymph node proportion of IL-5-positive CD4+ T cells” value ([4]; FIG. 2D) of the same molecule?
A: reduced
